This is an account of results in patent US9926294B2, “Pesticidally active heterocyclic derivatives with sulphur containing substituents” (Syngenta Participations AG, priority 2014, dated 2018).

Bounds are passed on as bounds.

Assay type in all cases: in vivo
The test system of assay [1] is Spodoptera littoralis (Egyptian cotton leaf worm). Nature of the assay: Example B1: Spodoptera littoralis larvicide, feeding/residual contact, preventive (cotton leaf discs). The conditions noted are these: foliar, 72 h, L1 larvae on sprayed cotton leaf discs, 3 days after treatment, read-out: activity (mortality, repellent effect, feeding behaviour, growth regulation). The text has this: Example B1: Activity Against Spodoptera littoralis (Egyptian Cotton Leaf Worm)
Larvicide, Feeding/Residual Contact Activity, Preventive
Cotton leaf discs were placed on agar in a 24-well microtiter plate and sprayed with test solutions.
After drying, the leaf discs were infested with 5 L1 larvae. The samples were checked for mortality, repellent effect, feeding behaviour, and growth regulation 3 days after treatment (DAT).

For assay [2] the test system is unchanged. Nature of the assay: Example B2: Spodoptera littoralis systemic activity (lettuce on agar). As to conditions: 120 h, systemic via lettuce roots, 5 days after infestation, read-out: activity (mortality, repellent effect, feeding behavior, growth regulation). The source says:
Example B2: Activity Against Spodoptera littoralis (Egyptian Cotton Leaf Worm)
Test compounds were applied by pipette into 24 well plates and mixed with agar. Lettuce seeds were placed on the agar and the multi well plate is closed by another plate which contains also agar. After 7 days the roots have absorbed the compound and the lettuce has grown into the lid plate. The lettuce leaves were now cut off into the lid plate. Spodoptera eggs were pipetted through a plastic stencil on a humid gel blotting paper and the plate closed with it. The samples are checked for mortality, repellent effect, feeding behavior, and growth regulation 5 days after infestation.

The subject of assay [3] is Plutella xylostella (diamond back moth). Nature of the assay: Example B3: Plutella xylostella larvicide, feeding/residual contact, preventive (artificial diet). As to conditions: 120 h, L2 larvae on artificial diet, 5 days incubation, read-out: activity (larval mortality, antifeedant, growth regulation). The method, then: Example B3: Activity Against Plutella xylostella (Diamond Back Moth)
(Larvicide, Feeding/Residual Contact Activity, Preventive)
24-well microtiter plate (MTP) with artificial diet was treated with test solutions by pipetting. After drying, the MTPs were infested with L2 larvae (10-15 per well). After an incubation period of 5 days, samples were checked for larval mortality, antifeedant and growth regulation.

Assay [4] deals with Diabrotica balteata (corn root worm). Nature of the assay: Example B4: Diabrotica balteata larvae L2 on maize sprouts, feeding/contact, preventative. As to conditions: 120 h, L2 larvae on sprayed maize sprouts, 5 days incubation, read-out: activity (larval mortality, growth regulation). As for the experimental part: Example B4: Activity Against Diabrotica Balteata (Corn Root Worm)
(Larvae L2 on Maize Sprouts, Feeding/Contact, Preventative)
Maize sprouts, placed on an agar layer in 24 well micro titer plates were treated with test solutions by spraying. After drying, the MTPs were infested with L2 larvae (6-10 per well). After an incubation period of 5 days, samples were checked for larval mortality and growth regulation.

The test system of assay [5] is Myzus persicae (green peach aphid). Nature of the assay: Example B5: Myzus persicae feeding/residual contact, preventive, mixed population (sunflower leaf discs). As to conditions: foliar, 144 h, mixed population on sprayed sunflower leaf discs, 6 DAT, read-out: activity (mortality, special effects). As for the experimental part: Example B5: Activity Against Myzus persicae (Green Peach Aphid)
(Feeding/Residual Contact Activity, Preventive), Mixed Population
Sunflower leaf discs were placed on agar in a 24-well microtiter plate and sprayed with test solutions. After drying, the leaf discs were infested with an aphid population of mixed ages. After an incubation period of 6 DAT, samples were checked for mortality and special effects (e.g. phytotoxicity).

Assay [6] shares this test system. Nature of the assay: Example B7: Myzus persicae systemic/feeding activity, curative, mixed population (pea seedlings). The conditions noted are these: 144 h, roots of infested pea seedlings in test solution, 6 days after introduction, read-out: activity (mortality, special effects on the plant). The source says: Example B7: Activity Against Myzus persicae (Green Peach Aphid)
(Systemic/Feeding Activity, Curative), Mixed Population
Roots of pea seedlings, infested with an aphid population of mixed ages, were placed directly in the test solutions. 6 days after introduction, samples were checked for mortality and special effects on the plant.

In assay [7] the test system is Thrips tabaci (onion thrips). Nature of the assay: Example B8: Thrips tabaci mixed population, feeding/residual contact, preventive. The conditions noted are these: foliar, 168 h, mixed population on sprayed sunflower leaf discs, 7 days incubation, read-out: activity (mortality, special effects). The method, then: Example B8: Activity Against Thrips tabaci (Onion Thrips)
(Mixed Population, Feeding/Residual Contact Activity, Preventive)
Sunflower leaf discs were placed on agar in a 24-well microtiter plate and sprayed with test solutions. After drying, the leaf discs were infested with a thrips population of mixed ages. After an incubation period of 7 days, samples were checked for mortality and special effects (e.g. phytotoxicity).

For assay [8], the system named is Bemisia tabaci (cotton white fly). Nature of the assay: Example B9: Bemisia tabaci adulticide contact activity, preventative. The conditions noted are these: foliar, 168 h, adult white flies on sprayed cotton leaf discs, 7 DAT, read-out: activity (mortality, special effects). The method, then:
Example B9: Activity Against Bemisia tabaci (Cotton White Fly)
(Adulticide Contact Activity, Preventative), Adult
Cotton leaf discs were placed on agar in a 24-well microtiter plate and sprayed with test solutions. After drying, the leaf discs were infested with adult white flies. After an incubation period of 7 DAT, samples were checked for mortality and special effects (e.g. phytotoxicity).

Assay [9] has as its system Tetranychus urticae (two-spotted spider mite). Nature of the assay: Example B12: Tetranychus urticae mixed population on bean leaf discs. As to conditions: foliar, 192 h, mixed population (mobile stages) on sprayed bean leaf discs, 8 days after infestation. The method, then:
Example B12: Activity Against Tetranychus urticae (Two-Spotted Spider Mite)
Bean leaf discs on agar in 24-well microtiter plates were sprayed with aqueous test solutions prepared from 10′000 ppm DMSO stock solutions. After drying the leaf discs were infested with a mite population of mixed ages. The samples were assessed for mortality on mixed population (mobile stages) 8 days after infestation.

Assay [10] concerns Euschistus heros (neotropical brown stink bug). Nature of the assay: Example B10: Euschistus heros N-2 nymphs on soybean leaf. The conditions noted are these: 120 h, N-2 nymphs on sprayed soybean leaf, 5 days after infestation. The method, then: Example B10: Activity Against Euschistus heros (Neotropical Brown Stink Bug)
Soybean leaf on agar in 24-well microtiter plates were sprayed with aqueous test solutions prepared from 10′000 ppm DMSO stock solutions. After drying the leaf were infested with N-2 nymphs. The samples were assessed for mortality 5 days after infestation.

Assay [11] relates to Myzus persicae (green peach aphid). Nature of the assay: Example B6: Myzus persicae feeding activity sachet test, mixed population. The conditions noted are these: 120 h, sachet test in sucrose solution, 5 days after infestation. The text has this: Example B6: Activity Against Myzus persicae (Green Peach Aphid)
(Feeding Activity Sachet Test), Mixed Population
Test compounds were applied by pipette into 24 well plates and mixed with Sucrose solution. The plates were closed with a stretched Parafilm. A plastic stencil with 24 holes is placed onto the plate and infested pea seedlings were placed directly on the Parafilm. The infested plate is closed with a gel blotting paper and another plastic stencil and then turned upside down. 5 days after infestation the samples were checked on mortality. Application rate: 12.5 ppm.

The subject of assay [12] is Frankliniella occidentalis (western flower thrips). Nature of the assay: Example B11: Frankliniella occidentalis mixed population, feeding/contact, preventative. The conditions noted are these: foliar, 168 h, mixed population on sprayed sunflower leaf discs, 7 DAT, read-out: activity (mortality, special effects). As for the experimental part:
Example B11: Activity Against Frankliniella occidentalis (Western Flower Thrips)
(Mixed Population, Feeding/Contact, Preventative)
Sunflower leaf discs are placed on agar in a 24-well microtiter plate and sprayed with test solutions. After drying, the leaf discs are infested with a Frankliniella population of mixed ages. After an incubation period of 7 DAT, samples are checked for mortality and special effects (e.g. phytotoxicity).

Take `CCS(=O)(=O)c1cc(C(F)(F)F)ccc1-c1nnc(-c2cc(C(F)(F)F)ccn2)n1C` [Compound P60]: the mortality at 400 ppm in assay [1], in assay [3], in assay [4], in assay [5], in assay [7] and in assay [8] was more than 80% throughout. In addition, in assay [2], the mortality at 12.5 ppm is not below 80%. For the same compound, the mortality at 24 ppm in assay [6] was not below 80%.

For `CCS(=O)(=O)c1cc(C(F)(F)F)cnc1-c1nnc(-c2cc(F)cc(F)c2)n1C` [Compound P29], the values for the mortality at 400 ppm in assay [3] and in [9] were more than 80% and not below 80%, respectively.

As to `CCSc1cc(C(F)(F)F)cnc1-c1nnc(-c2cc(C(F)(F)F)ccn2)n1C` [Compound P1, 3-ethylsulfanyl-2-[4-methyl-5-[4-(trifluoromethyl)-2-pyridyl]-1,2,4-triazol-3-yl]-5-(trifluoromethyl)pyridine], the mortality at 400 ppm in assay [1], in assay [3], in assay [4], in assay [5], in assay [7] and in assay [8] was more than 80% in each case.

For `CCS(=O)(=O)c1cccnc1-c1nnc(-c2cc(C(F)(F)F)ccn2)n1C` [Compound P69], the mortality at 400 ppm in assay [1], in [3], in assay [4], in [5], in assay [8] and in assay [10] was more than 80% throughout. Besides, in assay [6], the mortality at 24 ppm is not below 80%.

In the case of `CCS(=O)(=O)c1cc(C(F)(F)F)cnc1-c1nnc(-c2ccc(Cl)c(C(F)(F)F)c2)n1C` [Compound P48], the mortality at 400 ppm in assay [1], in assay [4], in assay [5], in assay [8] and in assay [10] was more than 80% throughout.

For `CCS(=O)(=O)c1cc(C(F)(F)F)cnc1-c1nnc(-c2ccc(C(F)(F)F)nc2)n1C` [Compound P6], in assay [6], the mortality at 24 ppm was not below 80%. In [9], this compound returned a mortality at 400 ppm not below 80%.

In the case of `CCSc1cc(C(F)(F)F)ccc1-c1nnc(-c2cc(C(F)(F)F)ccn2)n1C` [Compound P59], the mortality at 400 ppm in [1], in assay [3], in assay [4], in assay [5], in assay [7] and in [8] was more than 80% each time.

Regarding `CCS(=O)(=O)c1cc(C(F)(F)F)cnc1-c1nnc(-c2cc(C(F)(F)F)ccn2)n1C` [Compound P2, 3-ethylsulfonyl-2-[4-methyl-5-[4-(trifluoromethyl)-2-pyridyl]-1,2,4-triazol-3-yl]-5-(trifluoromethyl)pyridine], the mortality at 400 ppm in [1], in assay [3], in assay [4], in assay [5], in assay [7] and in assay [8] was more than 80% each time. In addition, the mortality at 12.5 ppm in [2] and in assay [11] was not below 80% each time. Further, in assay [6], the mortality at 24 ppm was not below 80%.

Compound `CCSc1cc(OC(F)F)cnc1-c1nnc(-c2ccc(C(F)(F)F)nc2)n1C` [Compound P57] showed a mortality at 400 ppm in [9] not below 80%.

Turning to `CCn1c(-c2cc(C(F)(F)F)ccn2)nnc1-c1ncc(C(F)(F)F)cc1S(=O)(=O)CC` [Compound P65], the mortality at 400 ppm in assay [1], in [4] and in [7] was more than 80% throughout. For the same compound, in [2], the mortality at 12.5 ppm was not below 80%.

`CCS(=O)(=O)c1cc(C(F)(F)F)cnc1-c1nnc(-c2cnc(C(F)(F)F)nc2)n1C` [Compound P62]: the mortality at 400 ppm in assay [1], in assay [3], in assay [4], in [5] and in [10] was more than 80% throughout.

On to `CCS(=O)(=O)c1cc(C(F)(F)F)cnc1-c1nnc(-c2cccnc2)n1C` [Compound P42], for which, in assay [12], the mortality at 400 ppm is more than 80%.

For `Cn1c(-c2cc(C(F)(F)F)ccn2)nnc1-c1ncc(C(F)(F)F)cc1SCC1CC1` [Compound P76], the mortality at 400 ppm in [3], in assay [4] and in [7] was more than 80% each time.

`CCS(=O)(=O)c1cc(C(F)(F)F)cnc1-c1nnc(-c2ccccc2)n1C` [Compound P11]: the values for the mortality at 400 ppm in [4] and in assay [9] were more than 80% and not below 80%, respectively.

For `Cn1c(-c2cc(C(F)(F)F)ccn2)nnc1-c1ncc(C(F)(F)F)cc1S(=O)(=O)CC1CC1` [Compound P72], the mortality at 400 ppm in assay [3] and in assay [7] was more than 80% throughout.
